# Literature values, collected in PMC5278571, “Optimal doses of caspofungin during continuous venovenous hemodiafiltration in critically ill patients” (Critical Care, 2017).
# What was measured:
# Conditions in all cases: murine model of disseminated candidiasis; cited from earlier work
# C. parapsilosis = tested on: C. parapsilosis
# Protocol: (§1) Taking into account a MIC of 0.1 mg/L [4], and using the target pharmacokinetics/pharmacodynamics (PK/PD) described for micafungin, we would have reac ...
# Candida albicans = tested on: Candida albicans
# Protocol: as §1
# Candida glabrata = tested on: Candida glabrata
# Protocol: as §1
substance,measurement,setting,value
micafungin,AUC/MIC associated with 1 log kill/24 h,C. parapsilosis,1185
same,AUC/MIC associated with 1 log kill/24 h,Candida albicans,865
same,AUC/MIC associated with 1 log kill/24 h,Candida glabrata,450
